Reference: publication PMC5751249, “Anti-Diabetic Effect of Organo-Chalcogen (Sulfur and Selenium) Zinc Complexes with Hydroxy-Pyrone Derivatives on Leptin-Deficient Type 2 Diabetes Model ob/ob Mice” (International Journal of Molecular Sciences, 2017)

Legend:
male Wistar rats = tested on: male Wistar rats; parameters: method as in earlier work; conditions: in food 10 µg sodium selenite/kg/day (4.6 µg Se/kg/day), 3 months; cited from earlier work
[1] = tested on: type 2 diabetic ob/ob mice; assay: Daily oral treatment of ob/ob mice for 28 days: blood glucose, body weight, water intake; assay type: in vivo
Procedure: The anti-diabetic effects of both [Zn(hmpt)2] and [Zn(hmps)2] were examined in ob/ob mice. The ob/ob and +/+ mice were used as type 2 diabetic and normal (non-diabetic) mice, respectively. The ob/ob (10-week-old) and +/+ (10-week-old) mice received daily oral treatment of either Zn complexes dissolved in PEG-400 or PEG-400 only, respectively. The mice received oral treatments of [Zn(hmpt)2] or [Zn(hmps)2] at doses of 2.5–10 mg Zn/kg or 1.0–5.0 mg Zn/kg for 28 days, respectively. Blood glucose levels (BGL) were measured using a Glucocard (Arkray, Kyoto, Japan) just before treatment with the Zn complexes, and the doses were regulated based on the BGL. Over 28 days, BGL, body weight, food intake, and water intake were measured every day. The number of normal mice (+/+ mice), control mice (ob/ob mice), [Zn(hmpt)2]-treated, and [Zn(hmps)2]-treated mice was 6, 8, 8, and 8 in the initial animal experiments, respectively. This was modified to 6, 6, 7, and 8 after the end of experiments as two control mice died naturally by the end of experiments, and one [Zn(hmpt)2]-treated mouse died from an accident during the oral glucose tolerance test.

[2] = tested on: type 2 diabetic ob/ob mice; assay: Oral glucose tolerance test (OGTT) after 28 days treatment; assay type: in vivo
Procedure: After treatment with [Zn(hmpt)2] or [Zn(hmps)2] for 28 days, OGTTs were performed. The ob/ob mice and +/+ mice were fasted for 12-h and glucose (1 g/kg body weight) was given orally. Blood samples were obtained from the tail vein at 0, 15, 30, 45, 60, 90, and 120 min after glucose administration. Blood glucose concentrations were measured using a Glucocard.

[3] = tested on: type 2 diabetic ob/ob mice; assay type: in vivo
Procedure: (§1) After OGTT, HbA1c levels were measured in blood obtained from the mouse tail vein using an immunoassay with a DCA 2000 analyzer (Bayer-Sankyo Co., Ltd., Tokyo, Japan). The mice were subjected to a 12-h fast and blood samples were collected from the orbital vein or postcaval vein under isoflurane anesthesia using heparinized tools. Collected samples were then centrifuged at 650× g for 10 min at 4 °C, and the resultant plasma samples were used to analyze various biochemical parameters. The levels of AST, ALT, BUN, TG, T-CHO, and ALP in plasma samples were determined using a Fuji Dry Chem system. The plasma levels of insulin and adiponectin were determined using an ultra-sensitive Mouse Insulin ELISA Kit (Morinaga Institute of Biological Science, Inc., Kanagawa, Japan) and an adiponectin immunoassay kit (R&D Systems Inc., Minneapolis, MN, USA), respectively. After collecting the blood samples, mice were subjected to dissection under isoflurane anesthesia, and the resultant tissue samples were washed in saline. Each of the samples was dehydrated for a week in desiccators, weighed, and then heated in 5% HNO3 (5 mL) for 5 h at 110 °C in a closed system. The resultant solution was centrifuged at 1250× g for 15 min, and the supernatant was diluted using 5% HNO3. Both Zn and Se concentrations in organs were determined with an ICP-MS Agilent 7700x/Mass Hunter instrument (Agilent Technologies Inc., Santa Clara, CA, USA). The Zn and Se concentrations in each sample were calculated using linear regression of the standard curves prepared from standard solutions of the respective trace elements.

[4] = Organ distribution of Zn and Se by ICP-MS after 28 days oral treatment; assay type: in vivo, mice
Procedure: as §1

[5] = tested on: type 2 diabetic ob/ob mice; assay: Histopathology and morphometric analysis of pancreas and liver (HE staining); assay type: in vivo; conditions: 14-week-old mice
Procedure: Excised pancreas and liver from 14-week-old mice were immediately fixed in 10% buffered formalin for a week, sectioned at a thickness of 3 μm, and stained with HE for histopathological examination. HE-stained tissue sections were scanned using a Moticam T2 (Shimadzu Co., Kyoto, Japan) to prepare digital images. Both pancreatic islet area and glycogen and fat deposition areas were calculated with the dedicated image processing software WinROOF (Mitani Corp., Tokyo, Japan).

[6] = tested on: type 2 diabetic ob/ob mice; assay: Triglyceride and glycogen contents in the liver; assay type: in vivo; conditions: ob/ob mice after 28 days oral treatment
Procedure: Lipids in the liver were extracted according to modified Folch method. TG in the extracted lipids was detected using the triglyceride E test wako (Wako Pure Chemicals Co., Osaka, Japan). Glycogen in the liver was extracted with a strong base (30% KOH aq). Then, ethanol precipitation methods (using 95% ethanol and saturated Na2SO4), hydrolysis, and neutralization (with 2.4 M HCl aq and 0.8 M NaOH aq) of the glycogen extracts were performed, resulting in degradation to glucose solution. To detect the glucose levels in the solution using the glucose CII test wako (Wako Pure Chemicals Co., Osaka, Japan), glycogen levels in the liver were estimated. Because the liver sample of normal mice was used up during TG detection and ICP-MS analysis, glycogen content in the liver could not be detected.

[7] = tested on: Isolated male Wistar rat epididymal adipocytes; parameters: method as in PMID 29843022; conditions: 20 μM Zn complex, means ± SDs, three runs; cited from earlier work

O=[Se]([O-])[O-].[Na+].[Na+] [sodium selenite]
Hepatic histology finding (male Wistar rats): necrotic areas in hepatic sections were observed

Cc1occc(=[Se])c1[O-].Cc1occc(=[Se])c1[O-].[Zn+2] [[Zn(hmps)2], bis(3-hydroxy-2-methyl-4(H)-pyran-4-seleno)Zn]
Blood glucose level by the end of treatment ([1]; [Zn(hmpt)2] 2.5–10 mg Zn/kg, [Zn(hmps)2] 1.0–5.0 mg Zn/kg): approximately 200 mg/dL | Water intake on the final day ([1]; control 12.6 ± 1.6 g, p < 0.01 vs. control): 6.9 ± 0.5 g | Body weight change during treatment ([1]; loss seen day 22 to 25, recovered after dose reduction): Body weight gains | Area under the blood glucose concentration-time curve (AUC) in OGTT ([2]; 1 g glucose/kg oral, after 28 days treatment, compared with control mice): significantly decreased | Fasting blood glucose level (0 min of OGTT) ([2]; ob/ob mice after 28 days oral treatment, 12-h fast, control 237 ± 52 mg/dL): 172 ± 38 mg/dL | ALP (plasma) ([3]; mouse, in vivo, po): 550 ± 89 **^,##,†† U/L | ALT (plasma) ([3]; mouse, in vivo, po): 355 ± 138 **^,##,†† U/L | AST (plasma) ([3]; mouse, in vivo, po): 200 ± 55 **^,##,†† U/L | BUN (plasma) ([3]; mouse, in vivo, po): 24 ± 3 **^,## mg/dL | Insulin (fasting plasma) ([3]; ob/ob mice after 28 days oral treatment, control 2.2 ± 1.0): 1.4 ± 0.6 ng/mL | HbA1c ([3]; ob/ob mice after 28 days oral treatment, control 7.9 ± 0.8): 6.7 ± 0.4 **^,## % | Adiponectin (plasma) ([3]; ob/ob mice after 28 days oral treatment, control 8.2 ± 1.1): 9.0 ± 0.8 µg/mL | TG (plasma) ([3]; ob/ob mice after 28 days oral treatment, control 83 ± 16): 87 ± 11 mg/dL | T-CHO (plasma) ([3]; ob/ob mice after 28 days oral treatment, control 195 ± 16): 186 ± 16 mg/dL | Δ[Zn]/Δ[Se] molar ratio, bone ([4]; [Zn(L)] = 1.0, [Zn(L)2] = 0.5): 6.9 | Δ[Zn]/Δ[Se] molar ratio, kidney ([4]; [Zn(L)] = 1.0, [Zn(L)2] = 0.5): 0.25 | Δ[Zn]/Δ[Se] molar ratio, liver ([4]; [Zn(L)] = 1.0, [Zn(L)2] = 0.5): 0.61 | Δ[Zn]/Δ[Se] molar ratio, pancreas ([4]; [Zn(L)] = 1.0, [Zn(L)2] = 0.5): 27 | Se concentration, bone ([4]; dry tissue, ob/ob mice after 28 days oral treatment, control 0.5 ± 0.2): 1.9 ± 0.6 µg/g | Se concentration, muscle ([4]; dry tissue, ob/ob mice after 28 days oral treatment, control 1.3 ± 0.4): 2.5 ± 0.4 **^,#,†† µg/g | Se concentration, liver ([4]; dry tissue, ob/ob mice after 28 days oral treatment, control 2.1 ± 0.3): 5.1 ± 0.6 µg/g | Se concentration, pancreas ([4]; dry tissue, ob/ob mice after 28 days oral treatment, control 2.3 ± 0.6): 3.4 ± 0.8 **^,##,†† µg/g | Se concentration, spleen ([4]; dry tissue, ob/ob mice after 28 days oral treatment, control 2.7 ± 0.8): 9.1 ± 2.4 **^,##,†† µg/g | Se concentration, kidney ([4]; dry tissue, ob/ob mice after 28 days oral treatment, control 6.4 ± 0.2): 12.7 ± 2.0 **^,##,†† µg/g | Zn concentration, liver ([4]; dry tissue, ob/ob mice after 28 days oral treatment, control 44 ± 5): 46 ± 6 ^##^,† µg/g | Zn concentration, muscle ([4]; dry tissue, ob/ob mice after 28 days oral treatment, control 47 ±10): 41 ± 2 µg/g | Zn concentration, kidney ([4]; dry tissue, ob/ob mice after 28 days oral treatment, control 67 ± 3): 68 ± 4 µg/g | Zn concentration, spleen ([4]; dry tissue, ob/ob mice after 28 days oral treatment, control 100 ± 17): 95 ± 12 µg/g | Zn concentration, pancreas ([4]; dry tissue, ob/ob mice after 28 days oral treatment, control 133 ± 19): 158 ± 28 µg/g | Zn concentration, bone ([4]; dry tissue, ob/ob mice after 28 days oral treatment, control 154 ± 7): 162 ± 10 *^,^†† µg/g | Δ[Se], bone ([4]; mouse, in vivo, po): 18 nmol/g | Δ[Se], kidney ([4]; mouse, in vivo, po): 81 nmol/g | Δ[Se], liver ([4]; mouse, in vivo, po): 38 nmol/g | Δ[Se], pancreas ([4]; mouse, in vivo, po): 14 nmol/g | Δ[Se], plasma ([4]; mouse, in vivo, po): 6 nmol/g | Δ[Zn], bone ([4]; mouse, in vivo, po): 124 nmol/g | Δ[Zn], kidney ([4]; mouse, in vivo, po): 20 nmol/g | Δ[Zn], liver ([4]; mouse, in vivo, po): 23 nmol/g | Δ[Zn], pancreas ([4]; mouse, in vivo, po): 375 nmol/g | Δ[Zn], plasma ([4]; mouse, in vivo, po): 6 nmol/g | Se concentration, plasma ([4]; ob/ob mice after 28 days oral treatment, control 0.6 ± 0.1): 1.1 ± 0.2 **^,##,†† µg/mL | Zn concentration, plasma ([4]; ob/ob mice after 28 days oral treatment, control 2.1 ± 0.1): 2.5 ± 0.2 **^,## µg/mL | Pancreatic islet numbers per section ([5]; among normal, control and treated mice): not significantly changed | Glycogen and fat deposition area ratio in the liver ([5]; between control and treated mice): no significant differences | Pancreatic islet area ratio and size ([5]; compared with normal mice): significantly increased | Glycogen content in the liver ([6]; control 0.08 ± 0.04): 0.04 ± 0.01 mg/g liver | TG content in the liver ([6]; control 437 ± 139): 443 ± 42 mg/g liver | Glucose Uptake [7]: 138 ± 6 µg/10^6 Cells
